Several values for one entry are separate records, joined by “and”; a condition that tells them apart may be missing. Identical values can stand only once.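 Cells were grown in 96-well plates and exposed to each compound for 48 hours at five concentrations; endpoints were interpolated linearly between bracketing concentrations, or set to the highest concentration if not reached. GI50 = concentration required for 50% inhibition of growth. TGI: total growth inhibition.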
Tests used:
Assay in all cases: NCI tumour cell line growth inhibition, 48 h
UACC-257 melanoma = test system: UACC-257 melanoma
CAKI-1 renal = test system: CAKI-1 renal
SW-620 colon = test system: SW-620 colon
CCRF-CEM leukemia = test system: CCRF-CEM leukemia
MOLT-4 leukemia = test system: MOLT-4 leukemia
OVCAR-8 ovarian = test system: OVCAR-8 ovarian
EKVX NSCLC = test system: EKVX NSCLC
A549 NSCLC = test system: A549 NSCLC
RPMI-8226 leukemia = test system: RPMI-8226 leukemia
SK-OV-3 ovarian = test system: SK-OV-3 ovarian

Row | Compound | GI50 (UACC-257 melanoma) | TGI (UACC-257 melanoma) [µM] | GI50 (CAKI-1 renal) [µM] | TGI (CAKI-1 renal) | GI50 (SW-620 colon) [µM] | TGI (SW-620 colon) | GI50 (CCRF-CEM leukemia) [µM] | TGI (CCRF-CEM leukemia) [µM] | GI50 (MOLT-4 leukemia) | TGI (MOLT-4 leukemia) | GI50 (OVCAR-8 ovarian) [µM] | TGI (OVCAR-8 ovarian) | GI50 (EKVX NSCLC) | TGI (EKVX NSCLC) | GI50 (A549 NSCLC) [µM] | TGI (A549 NSCLC) | GI50 (RPMI-8226 leukemia) | TGI (RPMI-8226 leukemia) [µM] | TGI (SK-OV-3 ovarian) [µM] | GI50 (SK-OV-3 ovarian) [µM]
1 | CN1CCN(c2ccc3nc(-c4ccc5nc(-c6ccc(C(F)(F)F)cc6)[nH]c5c4)[nH]c3c2)CC1 | 1.75 µM | 3.42 | 2.97 | 15.7 µM | 1.47 | 3.09 µM | 1.56 | 3.68 | 2.33 µM | 4.96 µM | 2.02 | 4.7 µM | 2.06 µM | 4.38 µM | 1.94 | 3.91 µM | 2.06 µM | 4.51 | – | –
2 | CC(C)c1cccc2sc(NC(=O)C(=O)CC(=O)c3ccc(F)cc3)nc12 | – | > 100 | – | > 100 µM | – | > 100 µM | – | > 100 | – | – | – | > 100 µM | – | > 100 µM | – | > 100 µM | – | > 100 | > 100 | –
3 | CC(C)(C)c1ccc(NC(=O)c2cc(=O)c3ccccc3[nH]2)c(C(C)(C)C)c1O | 6.35 µM | 21.3 | 5.74 | 19.2 µM | 8.24 | 27.1 µM | 2.33 | 8.25 | 2.67 µM | 7.59 µM | 3.28 | 12.2 µM | – | – | 3.23 | 12.6 µM | 2.89 µM | 14.1 | 26.8 | 13.8
4 | COc1cccc(C(=O)O)c1Cc1cccc2ccccc12 | – | > 100 | – | > 100 µM | – | > 100 µM | – | > 100 | – | > 100 µM | – | > 100 µM | – | > 100 µM | – | > 100 µM | – | – | > 100 | –
5 | CC(=O)OC1C(O)COC(Oc2c(C)c3c4c(c2O)[C@@H](C)CC[C@@H]4[C@@H](C)C[C@H]3C=C(C)C)C1O (some centres not stated) | – | – | 16.9 | 32.2 µM | – | – | 7.42 | 27.4 | 4.89 µM | 28.5 µM | 23 | 49.8 µM | – | – | 16 | 40.3 µM | 13.3 µM | 33.2 | 39.2 | 19.6
6 | COc1cc2c(C#N)n3c(c2cc1OC)C(=O)C(c1ccccc1)Oc1ccccc1-3 (configuration not stated) | – | – | – | – | – | – | 2.72 | 8.51 | 5.37 µM | > 100 µM | 2.76 | > 100 µM | – | – | 2.87 | > 100 µM | – | – | > 100 | 21.1
7 | CCC(=O)[O-].CCC(=O)[O-].N.N.N.N.[Co+3].[O-][Cl+3]([O-])([O-])[O-] | > 100 µM | > 100 | – | – | > 100 | > 100 µM | > 100 | > 100 | > 100 µM | > 100 µM | > 100 | > 100 µM | > 100 µM | > 100 µM | > 100 | > 100 µM | > 100 µM | > 100 | > 100 | > 100
8 | CCN(CC)CCNc1ccc(CO)c2sc3ccccc3c(=O)c12 | 1.7 µM and 3.79 µM | – | 3.03 | 26.4 µM [middle of 4 runs] | 4.69 | 17.4 µM [middle of 4 runs] | – | – | 3.14 µM and 3.32 µM | 14.1 µM [middle of 4 runs] | 2.42 | 14 µM and 17.8 µM | 3.92 µM and 16.2 µM | 28.7 µM [middle of 4 runs] | 3.2 | 13.6 µM and 21.4 µM and 18.2 µM | 2.51 µM and 1.59 µM | – | – | –
9 | CC(=O)[CH-]C(=O)c1ccccc1.CC(=O)[CH-]C(=O)c1ccccc1.[O-]c1ccc(O)cc1.[O-]c1ccc(O)cc1.[Ti+4] | 21.5 µM | 70.7 | 17 | 34.1 µM | 17 | 31.6 µM | 1.91 | 7.49 | 4.18 µM | > 100 µM | 13.5 | 31.5 µM | – | – | 23.5 | > 100 µM | 5.63 µM | > 100 | 76.8 | 24.4
10 | N#CC(C(=N/NC(N)=S)/C(=N\NC(N)=S)C(C#N)c1ccccc1)c1ccccc1 (configuration not stated) | – | > 10 | – | – | – | > 10 µM | – | > 10 | – | > 10 µM | – | > 10 µM | – | > 10 µM | – | > 10 µM | – | > 10 | > 10 | –
11 | c1ccc2c(c1)[Se]c1ccccc1[Se]2 | – | > 100 | – | > 100 µM | – | > 100 µM | – | > 100 | – | > 100 µM | – | > 100 µM | – | – | – | > 100 µM | – | > 100 | > 100 | –
12 | O=S(O)CCCCSSCCCCS(=O)(O)=S | – | > 100 | – | > 100 µM | – | > 100 µM | – | > 100 | – | > 100 µM | – | > 100 µM | – | 88.6 µM | – | > 100 µM | – | – | > 100 | –
13 | CC(=O)C1C(=O)C(=O)N(c2ccc(Cl)cc2C)C1=O (configuration not stated) | – | > 100 | – | – | – | > 100 µM | – | > 100 | – | > 100 µM | – | > 100 µM | – | > 100 µM | – | > 100 µM | – | – | – | –
14 | Cc1cc(Cl)ccc1OCC(=O)Oc1c(Cl)c(Cl)c(Cl)c(Cl)c1Cl | – | 45.3 | – | > 100 µM | – | > 100 µM | – | – | – | – | – | 66.8 µM | – | 56.4 µM | – | 66.3 µM | – | 61.7 | 83.8 | –
15 | CC(C)[C@H](COC(C)(C)C)N=CN1CSc2ccccc21 | – | – | – | – | – | > 100 µM | – | > 100 | – | > 100 µM | – | > 100 µM | – | > 100 µM | – | > 100 µM | – | 54 | 78.3 | –
16 | CC(=O)OC1CC(C)c2c1ncnc2N1CCN(C(=O)OC(C)(C)C)CC1 (configuration not stated) | – | – | 63.8 | > 100 µM | 42.9 | > 100 µM | 32.9 | > 100 | 37.2 µM | > 100 µM | 54.3 | > 100 µM | – | – | 44.2 | > 100 µM | 35.1 µM | > 100 | > 100 | 53.7
17 | COc1cccc2c1C(=O)c1c(O)c3c(c(O)c1C2=O)C[C@@](O)(C(=O)COC(=O)c1cccnc1)C[C@@H]3OC1CC(N)C(O)C(C)O1 (some centres not stated) | 0.172 µM | 0.557 | 0.705 | 6.25 µM | 0.0605 | 2.17 µM | 0.0574 | 1.19 | 0.0369 µM | 0.684 µM | 0.183 | 4.85 µM | – | – | 0.0774 | 0.533 µM | 0.114 µM | 0.714 | 26 | 0.382
